Results published in US7612205B2, “Crystals of quinolinecarboxylic acid derivative solvate” (Nippon Shinyaku Co., Ltd., priority 2003, dated 2009).
Like-named read-outs stand apart in the source and are kept apart here.

Assays:
[1] = Stability of Compound A in a solvent by high-performance liquid chromatography; assay type: physicochemical; design: key to Chemical stability (*2): ◯: the one that did not have a peak other than that of Compound A (there is no degradation product); X: the one that had a peak other than that of Compound A (there is a degradation product); conditions: 50° C. for 1000 minutes, HPLC; for Chemical stability (*2): 2-fold volume
Method: (2) In order to investigate the stability of Compound A in a solvent, a 2-fold volume (the volume of a solvent (ml)/the weight of a dissolved substance (g)) of a solvent was added to Compound A, the mixture was maintained at 50° C. for 1000 minutes, and then the stability of the compound was investigated by high-performance liquid chromatography.
(§1) The results of the (1) described above are shown in the column of *1 of Table 2 and the results of the (2) described above are shown in the column of *2 of Table 2.

[2] = Investigation on solvent for crystallization: whether Compound A is dissolved in a solvent; assay type: physicochemical; conditions: organic solvent or mixture, thermodynamic from solid, 3 ml solvent to 50 mg
Method: (1) By adding 3 ml of a solvent to 50 mg of Compound A, it was investigated whether Compound A is dissolved or not.
as §1

[3] = in acetonitrile, stirred for 30 minutes
Method: In the present invention, the term “solvent mediated transformation” means transformation of a crystal into another crystal form in the presence of a solvent. For example, it means that at a predetermined temperature, the crystal of Compound B is transformed into the type I crystal of Compound A in a solvent.
The crystal of Compound B was added to acetonitrile in an amount of not less than the supersaturation concentration at a predetermined temperature (in a state where not all the added crystals are dissolved and some crystals are present), stirred for 30 minutes, and then the crystal was filtered and measured with a powder X-ray diffractometer.

[4] = acetonitrile, in terms of the desolvate
Description: In the present invention, the term “supersaturation concentration: Cx (g/100 g)” means the degree of supersaturation state and it is represented by the following formula. Cx=C−Cs
Where, C (g/100 g) indicates the mass (in terms of the desolvate) of Compound B dissolved in 100 g of a solvent.
Cs (g/100 g) indicates the saturation solubility (in terms of the desolvate) of Compound B dissolved in 100 g of a solvent under the temperature at the time of occurrence of spontaneous nucleation or addition of seed crystal.
A predetermined amount of Compound A was dissolved in a predetermined amount of acetonitrile, crystallization was carried out at various supersaturation concentrations, and the obtained crystals were analyzed with a powder X-ray diffractometer.

With Cc1oc(=O)oc1CN1CCN(c2cc3c(cc2F)c(=O)c(C(=O)O)c2n3C(C)S2)CC1 (stereo not drawn) [Compound A, 6-fluoro-1-methyl-7-[4-(5-methyl-2-oxo-1,3-dioxolen-4-yl)-methyl-1-piperazinyl]-4-oxo-4H-[1,3]thiazeto[3,2-a]quinoline-3-carboxylic acid] as the compound, how does the “degradation product in solvent” value ([1]; formic acid, acetic acid and aniline) read?
The value was “a degradation product of Compound A was observed”.

What about the “Chemical stability (*2)” value ([1]; solvent 2-ethoxy ethanol) of the same compound?
The value was “X”.

What about the “Chemical stability (*2)” value ([1]; solvent acetic acid) of the same compound?
The value was “X”.

What about the “Chemical stability (*2)” value ([1]; solvent acetic anhydride) of the same compound?
The value was “X”.

What about the “Chemical stability (*2)” value ([1]; solvent acetonitrile) of the same compound?
Its value is “◯”.

And the “Chemical stability (*2)” value ([1]; solvent aniline)?
Its value is “X”.

And the “Chemical stability (*2)” value ([1]; solvent formic acid)?
Its value is “X”.

And the “Chemical stability (*2)” value ([1]; solvent methanol)?
The value was “X”.

And the “Chemical stability (*2)” value ([1]; solvent phenol)?
The value was “X”.

And the solubility ([2]; solvent 1-butanol)?
Its solubility is ≤ 16.7 mg/mL.

What about the solubility ([2]; solvent 2-ethoxy ethanol, read-out: Solubility (*1)) of the same compound?
The solubility was ≥ 16.7 mg/mL.

What about the solubility ([2]; solvent 2-propanol, read-out: Solubility (*1)) of the same compound?
Its solubility is ≤ 16.7 mg/mL.

And the solubility ([2]; solvent N,N-dimethylformamide, read-out: Solubility (*1))?
Its solubility is > 16.7 mg/mL.

What about the solubility ([2]; solvent acetic acid, read-out: Solubility (*1)) of the same compound?
The solubility was > 16.7 mg/mL.

What about the solubility ([2]; solvent acetic anhydride, read-out: Solubility (*1)) of the same compound?
Its solubility is ≥ 16.7 mg/mL.

And the solubility ([2]; solvent acetone, read-out: Solubility (*1))?
The solubility was ≤ 16.7 mg/mL.

What about the solubility ([2]; solvent acetonitrile, read-out: Solubility (*1)) of the same compound?
The solubility was ≥ 16.7 mg/mL.

What about the solubility ([2]; solvent aniline, read-out: Solubility (*1)) of the same compound?
Its solubility is > 16.7 mg/mL.

And the solubility ([2]; solvent benzene, read-out: Solubility (*1))?
The solubility was ≤ 16.7 mg/mL.

And the solubility ([2]; solvent carbon tetrachloride, read-out: Solubility (*1))?
Its solubility is ≤ 16.7 mg/mL.

What about the solubility ([2]; solvent chloroacetonitrile, read-out: Solubility (*1)) of the same compound?
Its solubility is > 16.7 mg/mL.

What about the solubility ([2]; solvent chloroform, read-out: Solubility (*1)) of the same compound?
Its solubility is ≤ 16.7 mg/mL.

What about the solubility ([2]; solvent cresol, read-out: Solubility (*1)) of the same compound?
The solubility was ≤ 16.7 mg/mL.

What about the solubility ([2]; solvent dibutyl ether, read-out: Solubility (*1)) of the same compound?
The solubility was ≤ 16.7 mg/mL.

What about the solubility ([2]; solvent diisopropyl ether, read-out: Solubility (*1)) of the same compound?
The solubility was ≤ 16.7 mg/mL.

And the solubility ([2]; solvent dioxane, read-out: Solubility (*1))?
The solubility was ≤ 16.7 mg/mL.

What about the solubility ([2]; solvent diphenyl ether, read-out: Solubility (*1)) of the same compound?
Its solubility is ≤ 16.7 mg/mL.

And the solubility ([2]; solvent ethanol, read-out: Solubility (*1))?
The solubility was ≤ 16.7 mg/mL.

What about the solubility ([2]; solvent ethyl acetate, read-out: Solubility (*1)) of the same compound?
The solubility was ≤ 16.7 mg/mL.

And the solubility ([2]; solvent formamide, read-out: Solubility (*1))?
The solubility was ≤ 16.7 mg/mL.

And the solubility ([2]; solvent formic acid, read-out: Solubility (*1))?
Its solubility is > 16.7 mg/mL.

What about the solubility ([2]; solvent glycerin, read-out: Solubility (*1)) of the same compound?
The solubility was ≤ 16.7 mg/mL.

What about the solubility ([2]; solvent heptane, read-out: Solubility (*1)) of the same compound?
The solubility was ≤ 16.7 mg/mL.

And the solubility ([2]; solvent hexane, read-out: Solubility (*1))?
The solubility was ≤ 16.7 mg/mL.

And the solubility ([2]; solvent isobutyl alcohol, read-out: Solubility (*1))?
The solubility was ≤ 16.7 mg/mL.

What about the solubility ([2]; solvent isopropyl acetate, read-out: Solubility (*1)) of the same compound?
The solubility was ≤ 16.7 mg/mL.

And the solubility ([2]; solvent ligroin, read-out: Solubility (*1))?
The solubility was ≤ 16.7 mg/mL.

And the solubility ([2]; solvent methanol, read-out: Solubility (*1))?
Its solubility is ≤ 16.7 mg/mL.

And the solubility ([2]; solvent methyl acetate, read-out: Solubility (*1))?
The solubility was ≤ 16.7 mg/mL.

What about the solubility ([2]; solvent methyl ethyl ketone, read-out: Solubility (*1)) of the same compound?
Its solubility is ≤ 16.7 mg/mL.

What about the solubility ([2]; solvent methylcyclohexane, read-out: Solubility (*1)) of the same compound?
Its solubility is ≤ 16.7 mg/mL.

And the solubility ([2]; solvent nitromethane, read-out: Solubility (*1))?
The solubility was > 16.7 mg/mL.

What about the solubility ([2]; solvent p-cymene, read-out: Solubility (*1)) of the same compound?
The solubility was ≤ 16.7 mg/mL.

And the solubility ([2]; solvent petroleum ether, read-out: Solubility (*1))?
Its solubility is ≤ 16.7 mg/mL.

And the solubility ([2]; solvent phenol, read-out: Solubility (*1))?
Its solubility is ≥ 16.7 mg/mL.

And the solubility ([2]; solvent pyridine, read-out: Solubility (*1))?
Its solubility is > 16.7 mg/mL.

And the solubility ([2]; solvent tetrachloroethylene, read-out: Solubility (*1))?
The solubility was ≤ 16.7 mg/mL.

What about the solubility ([2]; solvent tetrahydrofuran, read-out: Solubility (*1)) of the same compound?
The solubility was ≤ 16.7 mg/mL.

And the solubility ([2]; solvent toluene, read-out: Solubility (*1))?
Its solubility is ≤ 16.7 mg/mL.

What about the solubility ([2]; solvent trichloroethylene, read-out: Solubility (*1)) of the same compound?
The solubility was ≤ 16.7 mg/mL.

And the solubility ([2]; solvent xylene, read-out: Solubility (*1))?
Its solubility is ≤ 16.7 mg/mL.

For CC#N.Cc1oc(=O)oc1CN1CCN(c2cc3c(cc2F)c(=O)c(C(=O)O)c2n3C(C)S2)CC1 (stereo not drawn) [Compound B, 6-fluoro-1-methyl-7-[4-(5-methyl-2-oxo-1,3-dioxolen-4-yl)-methyl-1-piperazinyl]-4-oxo-4H-[1,3]thiazeto[3,2-a]quinoline-3-carboxylic acid acetonitrile solvate], which Crystal form ([3]; 25 ° C.) is on record?
The Crystal form was “Not changed”.

What about the Crystal form ([3]; 40 ° C.) of the same compound?
Its Crystal form is “Not changed”.

What about the Crystal form ([3]; 55 ° C.) of the same compound?
The Crystal form was “Not changed”.

And the Crystal form ([3]; 67 ° C.)?
The Crystal form was “Not changed”.

What about the “Solubility at the time of occurrence of spontaneous nucleation or addition of seed crystals (Cs)” value (“Solubility at the time” for short) ([4]; 0 ° C.) of the same compound?
The value was 0.07 g/100 g.

What about the “Solubility at the time” value ([4]; 14.3 ° C.) of the same compound?
Its value is 0.16 g/100 g.

What about the “Solubility at the time” value ([4]; 17 ° C.) of the same compound?
The value was 0.19 g/100 g.

What about the “Solubility at the time” value ([4]; 25 ° C.) of the same compound?
Its value is 0.29 g/100 g.

What about the “Solubility at the time” value ([4]; 27 ° C.) of the same compound?
Its value is 0.32 g/100 g.

What about the “Solubility at the time” value ([4]; 30 ° C.) of the same compound?
Its value is 0.38 g/100 g.

What about the “Solubility at the time” value ([4]; 45 ° C.) of the same compound?
The value was 0.79 g/100 g.

And the “Solubility at the time” value ([4]; 50 ° C.)?
The value was 1.00 g/100 g.

And the “Solubility at the time” value ([4]; 55 ° C.)?
The value was 1.25 g/100 g.

What about the “Solubility at the time” value ([4]; 65 ° C.) of the same compound?
Its value is 1.92 g/100 g.

And the “Solubility at the time” value ([4]; 70 ° C.)?
The value was 2.36 g/100 g.
